Measured values from publication PMC12319374, “Efficient and Rapid Arylation of NH₂‐Unprotected Bromobisindole Ethanamines via Suzuki‐Miyaura Coupling: Generating New Leads Against Leishmania” (Chemistry (Weinheim an Der Bergstrasse, Germany), 2025).
Like-named read-outs stand apart in the source and are kept apart here.

Columns and labels:
THP-1 cells = test: Evaluation of cytotoxicity on THP-1 cells (MTS); type: cell-based, human; conditions: for Cytotoxicity on THP‐1 (100, 20, 4 µM) (%): 72 h, PMA-differentiated THP-1
Protocol: (§1) Finally, eighteen compounds were first screened for efficacy against L. infantum MHOM/TN/80/IPT1 promastigotes at a single dose of 20 µM for 72 hours.
(§2) L. infantum MHOM/TN/80/IPT1 (WHO international reference strain) was purchased from ATCC (ATCC® 50134™) and was cultured in Evans's Modified Tobie Medium (EMTM) at 26–28 °C. To test the compounds, parasites were resuspended in RPMI-PY medium as described previously. The human monocytic cell line THP-1 (ECACC 88081201) was cultured in RPMI-1640 medium supplemented with 10% heat-inactivated Fetal Bovine Serum (FBS), 100 μg/ml streptomycin, […] and maintained in a humidified incubator at 37 °C and 5% CO2. All the cell culture reagents were purchased from Sigma-Aldrich (St. Louis, MO, USA).
(§3) The cytotoxicity of the compounds was assessed on THP-1 cells seeded at a density of 5 × 10^5 cells per mL, 100μL/well in a 96-well plate and treated for 72 h with 20 ng/mL phorbol myristic acid (PMA) to induce differentiation into macrophages like cells. After cell adhesion to the plate, each molecule was tested at 4, 20 and 100 μM for 72 h at 37 °C.
(§4) Three selected compounds were further evaluated at different concentration, obtained from scalar dilutions 1:2 (from 100 µM to 3.12 μM) for 72 h at 37°C. The negative control (untreated THP-1 cells) and the positive control (miltefosine) were included in each experiment. Each condition was carried out in duplicate. To evaluate the compounds cytotoxicity, the CellTiter 96H Aqueous Non-Radioactive Cell Proliferation Assay (Promega), was used as described before. […]

[1] = system: L. infantum MHOM/TN/80/IPT1 promastigotes; test: L. infantum promastigotes viability assay (MTS); type: cell-based, Leishmania infantum; conditions: Leishmania infantum, 72 h; for inhibition at 20 µM: single dose 20 µM
Protocol: as §1, §2
Late log/stationary phase L. infantum promastigotes were resuspended in RPMI-PY medium at a density of 2.5×10^6 parasites/mL in 96-well plates (100μL/well). The anti-parasitic activity of the eighteen compounds of the library was initially investigated at a single dose of 20 μM for 72 h at 26 °C. […] Not treated parasites were included as negative control. As positive control, the anti-leishmanial drug miltefosine (Sigma-Aldrich, Milan, Italy) was used. Each condition was carried out in duplicate. To evaluate the promastigotes viability, the CellTiter 96H Aqueous Non-Radioactive Cell Proliferation Assay (Promega), based on the ability of viable cells to convert a soluble tetrazolium salt [3-(4.5-dimethylthiazol-2-yl)-5-(3-carboxymethoxy-phenyl)-2-(4-sulfophenyl)-2H-tetrazolium. MTS] to a formazan product, was performed. To this end, 20 μL of MTS/PMS (phenazinemethosulfate, Sigma-Aldrich) was added to 100 μL of culture medium and incubated at 26°C until formazan production. Absorbance was recorded on a Microplate Reader (Infinite® F50 Plus, Tecan) at 492 nm. The IC50 values were calculated using nonlinear regression curves in GraphPad Prism 8.0 (GraphPad Software,Inc., San Diego, CA). The equation used for data fitting was Y= 100/(1 + 10∧((Log IC50 −X)*HillSlope)) (hillslope not constrained), where X is the log of concentration and Y is the normalized response. […]

[2] = Evaluation of cytotoxicity on THP-1 cells (MTS); type: cell-based, human; conditions: human, 72 h
Protocol: as §1, §2, §3, §4

[3] = roughly determined from 100, 20 and 4 µM, read-out: CC50 interval on THP-1 cells

| Structure (SMILES) | Cytotoxicity on THP‐1 (100, 20, 4 µM) (%) (THP-1 cells; 4 µM) | Cytotoxicity on THP‐1 (100, 20, 4 µM) (%) (THP-1 cells; 20 µM) | Cytotoxicity on THP‐1 (100, 20, 4 µM) (%) (THP-1 cells; 100 µM) | inhibition at 20 µM [1] | CC50 at 72 h [2, 3] | CC50 at 72 h ([2]; scalar dilutions 1:2 from 100 to 3.12 µM, mean (95% CI), read-out: THP‐1 CC50 (µM) (95% CI)) | SI (Selectivity index = CC50/IC50) (THP-1 cells; CC50 THP-1 (72 h) / IC50 L. infantum promastigotes (72 h)) | IC50 ([1]; scalar dilutions 2:3 from 20 to 1.17 µM, mean (95% CI)) |
| --- | --- | --- | --- | --- | --- | --- | --- | --- |
| NCC(c1c[nH]c2cc(-c3ccccc3)ccc12)c1c[nH]c2cc(-c3ccccc3)ccc12 [3aa, 2,2-bis(6-phenyl-1H-indol-3-yl)ethan-1-amine] | −18% | 97% | 87% | 96.2% |  |  |  |  |
| NCC(c1c[nH]c2cc(-c3ccc(F)cc3)ccc12)c1c[nH]c2cc(-c3ccc(F)cc3)ccc12 [3ab, 2,2-bis(6-(4-fluorophenyl)-1H-indol-3-yl)ethan-1-amine] | −33% | 97% | 85% | 97.1% |  |  |  |  |
| CC(C)Cc1ccc(-c2ccc3c(C(CN)c4c[nH]c5cc(-c6ccc(CC(C)C)cc6)ccc45)c[nH]c3c2)cc1 [3ac, 2,2-bis(6-(4-isobutylphenyl)-1H-indol-3-yl)ethan-1-amine] | −17% | 1% | 88% | ≤ 51.4% | 20 to 100 µM |  |  |  |
| COc1ccc(-c2ccc3c(C(CN)c4c[nH]c5cc(-c6ccc(OC)cc6)ccc45)c[nH]c3c2)cc1 [3ad, 2,2-bis(6-(4-methoxyphenyl)-1H-indol-3-yl)ethan-1-amine] | −12% | 96% | 86% | 95.1% |  |  |  |  |
| NCC(c1c[nH]c2cc(-c3cccc(Cl)c3)ccc12)c1c[nH]c2cc(-c3cccc(Cl)c3)ccc12 [3ag, 2,2-bis(6-(3-chlorophenyl)-1H-indol-3-yl)ethan-1-amine] | −7% | 97% | 84% | 93.6% |  |  |  |  |
| NCC(c1c[nH]c2cc(-c3cccc(-c4ccccc4)c3)ccc12)c1c[nH]c2cc(-c3cccc(-c4ccccc4)c3)ccc12 [3ah, 2,2-bis(6-([1,1'-biphenyl]-3-yl)-1H-indol-3-yl)ethan-1-amine] | −20% | 32% | 77% |  | 20 to 100 µM |  |  |  |
| NCC(c1c[nH]c2cc(-c3cccc(OCc4ccccc4)c3)ccc12)c1c[nH]c2cc(-c3cccc(OCc4ccccc4)c3)ccc12 [3ai, 2,2-bis(6-(3-(benzyloxy)phenyl)-1H-indol-3-yl)ethan-1-amine] | 1% | 90% | 72% |  |  |  |  |  |
| COc1cccc(-c2ccc3c(C(CN)c4c[nH]c5cc(-c6cccc(OC)c6)ccc45)c[nH]c3c2)c1 [3aj, 2,2-bis(6-(3-methoxyphenyl)-1H-indol-3-yl)ethan-1-amine] | 2% | 97% | 85% | 96.5% |  |  |  |  |
| COc1ccccc1-c1ccc2c(C(CN)c3c[nH]c4cc(-c5ccccc5OC)ccc34)c[nH]c2c1 [3ak, 2,2-bis(6-(2-methoxyphenyl)-1H-indol-3-yl)ethan-1-amine] | −4% | 97% | 86% | 96.5% |  |  |  |  |
| COc1cccc(OC)c1-c1ccc2c(C(CN)c3c[nH]c4cc(-c5c(OC)cccc5OC)ccc34)c[nH]c2c1 [3al, 2,2-bis(6-(2,6-dimethoxyphenyl)-1H-indol-3-yl)ethan-1-amine] | −5% | 47% | 84% | ≤ 51.4% | 20 to 100 µM |  |  |  |
| NCC(c1c[nH]c2cc(-c3cccc4ccccc34)ccc12)c1c[nH]c2cc(-c3cccc4ccccc34)ccc12 [3an, 2,2-bis(6-(naphthalen-1-yl)-1H-indol-3-yl)ethan-1-amine] | −15% | 95% | 79% | 97.8% |  |  |  |  |
| NCC(c1c[nH]c2cc(-c3ccc4ccccc4c3)ccc12)c1c[nH]c2cc(-c3ccc4ccccc4c3)ccc12 [3ao, 2,2-bis(6-(naphthalen-2-yl)-1H-indol-3-yl)ethan-1-amine] | −13% | 94% | 76% | 95.1% |  |  |  |  |
| CC(C)(C)OC(=O)n1cccc1-c1ccc2c(C(CN)c3c[nH]c4cc(-c5cccn5C(=O)OC(C)(C)C)ccc34)c[nH]c2c1 [3ap, di-tert-butyl 2,2'-((2-aminoethane-1,1-diyl)bis(1H-indole-3,6-diyl))bis(1H-pyrrole-1-carboxylate)] | 22% | 97% | 85% | 92.6% |  |  |  |  |
| NCC(c1c[nH]c2cc(/C=C/c3ccc(Cl)cc3)ccc12)c1c[nH]c2cc(/C=C/c3ccc(Cl)cc3)ccc12 [3ar, 2,2-bis(6-((E)-4-chlorostyryl)-1H-indol-3-yl)ethan-1-amine] | −32% | 95% | 66% | 95.1% |  |  |  |  |
| NCC(c1c[nH]c2ccc(-c3ccccc3)cc12)c1c[nH]c2ccc(-c3ccccc3)cc12 [3ba, 2,2-bis(5-phenyl-1H-indol-3-yl)ethan-1-amine] | −22% | 98% | 91% | 96.8% |  |  |  |  |
| CCCCCCCCCCCCCCCCOP(=O)([O-])OCC[N+](C)(C)C [Milt, miltefosine, reference compound] | −35% | 6% | 99% | 98.5% |  | 36.6 µM | 9.8 | 3.7 µM |
